# From PubChem BioAssay (NCI)
# Values joined by “and” are separate entries in the source; they are usually repeats but may differ in a detail not shown here. Equal values may be shown once.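 In this assay, cells in 96-well plates receive the compound at five concentrations for 48 hours. Endpoints are linearly interpolated between the surrounding concentrations. At the GI50, growth is halved. TGI denotes the concentration required for complete inhibition of growth.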
# Experiments:
# Assay in all cases: DTP human tumour cell line panel, 48 h
# EKVX NSCLC = test system: EKVX NSCLC
# IGROV1 ovarian = test system: IGROV1 ovarian
# OVCAR-3 ovarian = test system: OVCAR-3 ovarian
# UO-31 renal = test system: UO-31 renal
# MOLT-4 leukemia = test system: MOLT-4 leukemia
# BT-549 breast = test system: BT-549 breast
# HCT-15 colon = test system: HCT-15 colon
# PC-3 prostate = test system: PC-3 prostate
# SK-MEL-2 melanoma = test system: SK-MEL-2 melanoma
# SN12C renal = test system: SN12C renal
# NCI/ADR-RES ovarian = test system: NCI/ADR-RES ovarian
# SNB-75 CNS = test system: SNB-75 CNS
# RXF 393 renal = test system: RXF 393 renal
# UACC-62 melanoma = test system: UACC-62 melanoma
# SF-539 CNS = test system: SF-539 CNS
# HS 578T breast = test system: HS 578T breast
# LOX IMVI melanoma = test system: LOX IMVI melanoma
# SF-268 CNS = test system: SF-268 CNS
# SNB-19 CNS = test system: SNB-19 CNS
# U251 CNS = test system: U251 CNS
# A498 renal = test system: A498 renal
# KM12 colon = test system: KM12 colon
# TK-10 renal = test system: TK-10 renal
# HOP-92 NSCLC = test system: HOP-92 NSCLC
# A549 NSCLC = test system: A549 NSCLC
# DU-145 prostate = test system: DU-145 prostate
# SK-MEL-28 melanoma = test system: SK-MEL-28 melanoma
# NCI-H226 lung = test system: NCI-H226 lung
# NCI-H522 lung = test system: NCI-H522 lung
# COLO 205 colon = test system: COLO 205 colon
# NCI-H23 lung = test system: NCI-H23 lung
# 786-0 renal = test system: 786-0 renal
# SK-OV-3 ovarian = test system: SK-OV-3 ovarian
# SR leukemia = test system: SR leukemia
# OVCAR-4 ovarian = test system: OVCAR-4 ovarian
# CCRF-CEM leukemia = test system: CCRF-CEM leukemia
# HCC-2998 colon = test system: HCC-2998 colon
# M14 melanoma = test system: M14 melanoma
# OVCAR-8 ovarian = test system: OVCAR-8 ovarian
# SF-295 CNS = test system: SF-295 CNS
# T-47D breast = test system: T-47D breast
# UACC-257 melanoma = test system: UACC-257 melanoma
# NCI-H460 lung = test system: NCI-H460 lung
# HL-60(TB) leukemia = test system: HL-60(TB) leukemia
# K-562 leukemia = test system: K-562 leukemia
# ACHN renal = test system: ACHN renal
# MCF7 breast = test system: MCF7 breast
# HOP-62 NSCLC = test system: HOP-62 NSCLC
# OVCAR-5 ovarian = test system: OVCAR-5 ovarian
# MDA-MB-435 = test system: MDA-MB-435
# CAKI-1 renal = test system: CAKI-1 renal
# HCT-116 colon = test system: HCT-116 colon
# RPMI-8226 leukemia = test system: RPMI-8226 leukemia
# MDA-MB-231 breast = test system: MDA-MB-231 breast
# MALME-3M melanoma = test system: MALME-3M melanoma
# SK-MEL-5 melanoma = test system: SK-MEL-5 melanoma
# HT29 colon = test system: HT29 colon
# SW-620 colon = test system: SW-620 colon
# MDA-N = test system: MDA-N
smiles,measurement,setting,value
Cc1cc2c([nH]1)CSc1cc(S(=O)(=O)c3ccccc3)c(=O)[nH]c1-2,GI50,EKVX NSCLC,21 µM
same,TGI,EKVX NSCLC,> 100 µM
same,GI50,IGROV1 ovarian,0.82 µM
same,TGI,IGROV1 ovarian,> 95.5 µM
same,GI50,OVCAR-3 ovarian,0.246 µM
same,TGI,OVCAR-3 ovarian,0.615 µM
same,GI50,UO-31 renal,16.4 µM
same,TGI,UO-31 renal,> 93.6 µM
same,GI50,MOLT-4 leukemia,2.74 µM
same,TGI,MOLT-4 leukemia,> 100 µM
same,GI50,BT-549 breast,0.732 µM
same,TGI,BT-549 breast,> 74.4 µM
same,GI50,HCT-15 colon,0.392 µM
same,TGI,HCT-15 colon,> 100 µM
same,GI50,PC-3 prostate,0.351 µM
same,TGI,PC-3 prostate,> 100 µM
same,GI50,SK-MEL-2 melanoma,1.46 µM
same,TGI,SK-MEL-2 melanoma,> 83.2 µM
same,GI50,SN12C renal,0.666 µM
same,TGI,SN12C renal,> 100 µM
same,GI50,NCI/ADR-RES ovarian,0.445 µM
same,TGI,NCI/ADR-RES ovarian,2.17 µM
same,GI50,SNB-75 CNS,1.56 µM
same,TGI,SNB-75 CNS,> 24 µM
same,GI50,RXF 393 renal,4.64 µM
same,TGI,RXF 393 renal,> 61.5 µM
same,GI50,UACC-62 melanoma,0.465 µM
same,TGI,UACC-62 melanoma,> 39.6 µM
same,GI50,SF-539 CNS,0.327 µM
same,TGI,SF-539 CNS,1.82 µM
same,GI50,HS 578T breast,1.8 µM
same,TGI,HS 578T breast,9.43 µM
same,GI50,LOX IMVI melanoma,0.61 µM
same,TGI,LOX IMVI melanoma,> 73.2 µM
same,GI50,SF-268 CNS,2.39 µM
same,TGI,SF-268 CNS,> 80.9 µM
same,GI50,SNB-19 CNS,2.16 µM
same,TGI,SNB-19 CNS,> 100 µM
same,GI50,U251 CNS,0.388 µM
same,TGI,U251 CNS,> 100 µM
same,GI50,A498 renal,22.1 µM
same,TGI,A498 renal,69.7 µM
same,GI50,KM12 colon,0.461 µM
same,TGI,KM12 colon,5.24 µM
same,GI50,TK-10 renal,21.7 µM
same,TGI,TK-10 renal,> 100 µM
same,GI50,HOP-92 NSCLC,0.139 µM
same,TGI,HOP-92 NSCLC,1.32 µM
same,GI50,A549 NSCLC,43.8 µM
same,TGI,A549 NSCLC,> 100 µM
same,GI50,DU-145 prostate,0.722 µM
same,TGI,DU-145 prostate,13.2 µM
same,GI50,SK-MEL-28 melanoma,4.67 µM
same,TGI,SK-MEL-28 melanoma,42.5 µM
same,GI50,NCI-H226 lung,14.6 µM
same,TGI,NCI-H226 lung,> 88.7 µM
same,GI50,NCI-H522 lung,3.77 µM
same,TGI,NCI-H522 lung,36.7 µM
same,GI50,COLO 205 colon,14.1 µM
same,TGI,COLO 205 colon,35.2 µM
same,GI50,NCI-H23 lung,1.04 µM
same,TGI,NCI-H23 lung,60.6 µM
same,GI50,786-0 renal,14.9 µM
same,TGI,786-0 renal,> 100 µM
same,GI50,SK-OV-3 ovarian,21.9 µM
same,TGI,SK-OV-3 ovarian,> 100 µM
same,GI50,SR leukemia,0.167 µM
same,TGI,SR leukemia,> 100 µM
same,GI50,OVCAR-4 ovarian,0.553 µM
same,TGI,OVCAR-4 ovarian,> 86.2 µM
same,GI50,CCRF-CEM leukemia,0.452 µM
same,TGI,CCRF-CEM leukemia,> 100 µM
same,GI50,HCC-2998 colon,3.42 µM
same,TGI,HCC-2998 colon,> 42.6 µM
same,GI50,M14 melanoma,0.289 µM
same,TGI,M14 melanoma,2.16 µM
same,GI50,OVCAR-8 ovarian,1.54 µM
same,TGI,OVCAR-8 ovarian,> 100 µM
same,GI50,SF-295 CNS,2.4 µM
same,TGI,SF-295 CNS,8.09 µM
same,GI50,T-47D breast,0.35 µM
same,TGI,T-47D breast,55.1 µM
same,GI50,UACC-257 melanoma,17.3 µM
same,TGI,UACC-257 melanoma,> 100 µM
same,GI50,NCI-H460 lung,20.6 µM
same,TGI,NCI-H460 lung,68.5 µM
same,GI50,HL-60(TB) leukemia,0.249 µM
same,GI50,K-562 leukemia,2.56 µM
same,TGI,K-562 leukemia,> 100 µM
same,GI50,ACHN renal,13.3 µM
same,TGI,ACHN renal,> 100 µM
same,GI50,MCF7 breast,0.263 µM
same,TGI,MCF7 breast,16.1 µM
same,GI50,HOP-62 NSCLC,2.09 µM
same,TGI,HOP-62 NSCLC,> 100 µM
same,GI50,OVCAR-5 ovarian,17.6 µM
same,TGI,OVCAR-5 ovarian,> 100 µM
same,GI50,MDA-MB-435,0.197 µM
same,TGI,MDA-MB-435,0.46 µM
same,GI50,CAKI-1 renal,4.4 µM
same,TGI,CAKI-1 renal,> 58.4 µM
same,GI50,HCT-116 colon,0.368 µM
same,TGI,HCT-116 colon,10.9 µM
same,GI50,RPMI-8226 leukemia,0.806 µM
same,TGI,RPMI-8226 leukemia,> 100 µM
same,GI50,MDA-MB-231 breast,1.63 µM
same,TGI,MDA-MB-231 breast,> 100 µM
same,GI50,MALME-3M melanoma,0.568 µM
same,TGI,MALME-3M melanoma,75.9 µM
same,GI50,SK-MEL-5 melanoma,0.5 µM
same,TGI,SK-MEL-5 melanoma,16.1 µM
same,GI50,HT29 colon,0.316 µM
same,GI50,SW-620 colon,0.306 µM
same,TGI,SW-620 colon,> 100 µM
CC(=O)OCC1OC(Sc2nc(-c3ccc(Cl)cc3)c(C#N)c(=O)n2C2OC(COC(C)=O)C(OC(C)=O)C(OC(C)=O)C2OC(C)=O)C(OC(C)=O)C(OC(C)=O)C1OC(C)=O (stereo not drawn),TGI,EKVX NSCLC,> 100 µM
same,TGI,IGROV1 ovarian,> 100 µM and 33.5 µM
same,TGI,OVCAR-3 ovarian,> 100 µM and 24.8 µM
same,GI50,UO-31 renal,27.7 µM and 55.9 µM
same,TGI,UO-31 renal,> 100 µM
same,TGI,MOLT-4 leukemia,> 100 µM
same,TGI,HCT-15 colon,> 100 µM and 13.6 µM
same,TGI,PC-3 prostate,> 100 µM and 24.4 µM
same,GI50,SK-MEL-2 melanoma,> 100 µM and 17.4 µM
same,TGI,SK-MEL-2 melanoma,> 100 µM
same,GI50,NCI/ADR-RES ovarian,> 100 µM and 10.2 µM
same,TGI,NCI/ADR-RES ovarian,> 100 µM
same,TGI,HS 578T breast,> 100 µM and 34.3 µM
same,GI50,LOX IMVI melanoma,26.9 µM and 8.49 µM
same,TGI,LOX IMVI melanoma,> 100 µM
same,GI50,SNB-19 CNS,> 100 µM and 10.7 µM
same,TGI,SNB-19 CNS,> 100 µM and 23.1 µM
same,TGI,U251 CNS,> 100 µM
same,TGI,KM12 colon,> 100 µM and 31 µM
same,GI50,TK-10 renal,> 100 µM and 20.2 µM
same,TGI,TK-10 renal,> 100 µM and 47.8 µM
same,GI50,HOP-92 NSCLC,2.13 µM
same,TGI,HOP-92 NSCLC,9.15 µM
same,TGI,A549 NSCLC,> 100 µM
same,TGI,DU-145 prostate,> 100 µM and 25.3 µM
same,TGI,MDA-N,> 100 µM and 13.2 µM
same,TGI,NCI-H226 lung,> 100 µM and 12.1 µM
same,TGI,COLO 205 colon,> 100 µM and 19.3 µM
same,TGI,NCI-H23 lung,> 100 µM and 20 µM
same,TGI,SK-OV-3 ovarian,> 100 µM and 11.2 µM
same,TGI,SR leukemia,99.8 µM
same,TGI,OVCAR-4 ovarian,12.1 µM
same,TGI,M14 melanoma,> 100 µM
same,GI50,OVCAR-8 ovarian,> 100 µM and 17.2 µM
same,TGI,OVCAR-8 ovarian,> 100 µM
same,GI50,T-47D breast,89.8 µM and 17.7 µM
same,TGI,T-47D breast,> 100 µM
same,TGI,UACC-257 melanoma,> 100 µM and 10.8 µM
same,TGI,HL-60(TB) leukemia,8.82 µM
same,GI50,K-562 leukemia,36.6 µM
same,TGI,K-562 leukemia,> 100 µM
same,TGI,MCF7 breast,> 100 µM and 15.4 µM
same,TGI,HOP-62 NSCLC,> 100 µM and 18.5 µM
same,TGI,OVCAR-5 ovarian,> 100 µM and 21.9 µM
same,TGI,MDA-MB-435,> 100 µM and 19.7 µM
same,TGI,HCT-116 colon,> 100 µM
same,TGI,RPMI-8226 leukemia,> 100 µM
same,TGI,SK-MEL-5 melanoma,> 100 µM and 12.8 µM
same,TGI,SW-620 colon,> 100 µM
